Measurements taken from publication PMC9851200, “Multiparameter phenotypic screening for endogenous TFEB and TFE3 translocation identifies novel chemical series modulating lysosome function” (Autophagy, 2022).

Legend:
Format in all cases: binding
[1] = target: kinases (KINOMEscan panel) (Homo sapiens, UniProt P68400); conditions: CSNK2A1; NEW KINOMEscan
[2] = target: kinases (KINOMEscan panel) (Homo sapiens, UniProt P11309); conditions: NEW KINOMEscan
[3] = target: T1, kinases (KINOMEscan panel) (Homo sapiens, UniProt Q8IYT8); conditions: NEW KINOMEscan
T1 sequence (Q8IYT8 1-1036): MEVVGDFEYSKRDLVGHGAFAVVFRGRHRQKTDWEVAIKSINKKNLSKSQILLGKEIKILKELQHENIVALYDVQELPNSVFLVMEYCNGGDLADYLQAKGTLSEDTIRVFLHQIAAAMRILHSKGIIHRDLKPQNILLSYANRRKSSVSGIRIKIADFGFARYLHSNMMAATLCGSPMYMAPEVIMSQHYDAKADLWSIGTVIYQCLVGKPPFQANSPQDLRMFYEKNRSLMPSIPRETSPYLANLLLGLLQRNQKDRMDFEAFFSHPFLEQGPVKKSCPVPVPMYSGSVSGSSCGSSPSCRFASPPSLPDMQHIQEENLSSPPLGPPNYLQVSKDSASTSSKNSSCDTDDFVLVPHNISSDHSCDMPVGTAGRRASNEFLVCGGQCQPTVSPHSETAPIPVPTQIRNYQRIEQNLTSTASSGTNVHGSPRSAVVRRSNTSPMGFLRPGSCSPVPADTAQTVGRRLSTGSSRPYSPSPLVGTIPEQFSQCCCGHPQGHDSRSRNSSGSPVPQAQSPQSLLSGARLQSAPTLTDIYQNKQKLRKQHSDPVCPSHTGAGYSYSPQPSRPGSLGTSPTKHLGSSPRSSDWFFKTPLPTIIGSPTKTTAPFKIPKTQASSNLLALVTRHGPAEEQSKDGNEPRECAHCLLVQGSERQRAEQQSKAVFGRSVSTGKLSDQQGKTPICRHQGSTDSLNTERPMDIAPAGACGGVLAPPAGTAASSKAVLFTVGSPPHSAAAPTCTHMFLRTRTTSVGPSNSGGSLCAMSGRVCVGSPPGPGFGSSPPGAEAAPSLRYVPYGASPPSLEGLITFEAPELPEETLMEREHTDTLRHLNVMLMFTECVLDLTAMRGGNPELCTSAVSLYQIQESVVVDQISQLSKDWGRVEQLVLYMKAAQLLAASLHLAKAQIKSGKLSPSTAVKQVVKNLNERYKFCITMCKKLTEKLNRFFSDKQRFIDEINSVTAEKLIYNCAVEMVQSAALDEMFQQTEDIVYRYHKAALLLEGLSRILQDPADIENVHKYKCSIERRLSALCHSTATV

[4] = target: T2, kinases (KINOMEscan panel) (Homo sapiens, UniProt O14965); conditions: NEW KINOMEscan
T2 sequence (O14965 1-403): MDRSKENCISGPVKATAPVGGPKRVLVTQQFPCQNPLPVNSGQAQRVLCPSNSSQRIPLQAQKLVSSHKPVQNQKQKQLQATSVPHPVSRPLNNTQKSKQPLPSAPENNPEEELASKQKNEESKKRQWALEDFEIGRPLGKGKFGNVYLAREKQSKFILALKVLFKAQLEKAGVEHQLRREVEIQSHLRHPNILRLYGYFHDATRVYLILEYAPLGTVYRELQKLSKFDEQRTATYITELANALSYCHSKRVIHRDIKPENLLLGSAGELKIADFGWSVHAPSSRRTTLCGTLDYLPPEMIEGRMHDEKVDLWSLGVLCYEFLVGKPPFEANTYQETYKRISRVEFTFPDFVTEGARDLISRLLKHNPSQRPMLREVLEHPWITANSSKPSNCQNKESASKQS

[5] = target: kinases (KINOMEscan panel) (Homo sapiens, UniProt O43683); conditions: kinase BUB1; NEW KINOMEscan
[6] = target: kinases (KINOMEscan panel) (Homo sapiens, UniProt P37023); conditions: ACVRL1; NEW KINOMEscan
[7] = target: kinases (KINOMEscan panel) (Homo sapiens, UniProt P15056); conditions: BRAF; NEW KINOMEscan
[8] = target: kinases (KINOMEscan panel) (Homo sapiens, UniProt Q16584); conditions: kinase MAP3K11; NEW KINOMEscan
PRKD3 = target: T3, PRKD3 (Homo sapiens, UniProt O94806); test: KINOMEscan PRKD3; conditions: kinase PRKD3; NEW KINOMEscan
T3 sequence (O94806 1-890): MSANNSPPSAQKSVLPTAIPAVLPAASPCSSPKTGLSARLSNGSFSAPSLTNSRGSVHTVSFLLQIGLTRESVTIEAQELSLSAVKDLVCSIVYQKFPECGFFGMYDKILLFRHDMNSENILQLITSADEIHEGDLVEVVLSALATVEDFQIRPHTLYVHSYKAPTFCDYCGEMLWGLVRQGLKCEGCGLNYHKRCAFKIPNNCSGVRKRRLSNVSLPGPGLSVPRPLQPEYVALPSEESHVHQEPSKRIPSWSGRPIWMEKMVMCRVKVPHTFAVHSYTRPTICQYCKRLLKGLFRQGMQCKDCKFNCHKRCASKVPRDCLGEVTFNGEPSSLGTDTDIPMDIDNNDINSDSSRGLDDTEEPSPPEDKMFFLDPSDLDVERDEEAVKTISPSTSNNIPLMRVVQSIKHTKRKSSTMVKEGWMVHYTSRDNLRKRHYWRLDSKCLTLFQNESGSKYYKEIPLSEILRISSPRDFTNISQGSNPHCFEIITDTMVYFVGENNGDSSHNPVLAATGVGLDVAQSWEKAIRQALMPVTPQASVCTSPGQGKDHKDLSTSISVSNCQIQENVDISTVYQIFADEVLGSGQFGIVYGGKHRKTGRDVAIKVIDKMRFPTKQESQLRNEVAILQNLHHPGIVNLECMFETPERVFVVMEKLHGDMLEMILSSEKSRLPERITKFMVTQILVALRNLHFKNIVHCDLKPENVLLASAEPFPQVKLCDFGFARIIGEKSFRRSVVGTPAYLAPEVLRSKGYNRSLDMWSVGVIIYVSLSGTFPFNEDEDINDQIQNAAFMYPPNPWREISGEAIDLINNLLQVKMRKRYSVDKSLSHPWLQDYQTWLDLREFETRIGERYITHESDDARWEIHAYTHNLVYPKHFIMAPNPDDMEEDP

CSNK1D = CSNK1D (Homo sapiens, UniProt P48730); test: KINOMEscan CSNK1D; conditions: NEW KINOMEscan
CDC42BPB/MRCKB = CDC42BPB/MRCKB (Homo sapiens, UniProt Q9Y5S2)
CDC42BPB/MRCKB, sequence (Q9Y5S2 whole entry): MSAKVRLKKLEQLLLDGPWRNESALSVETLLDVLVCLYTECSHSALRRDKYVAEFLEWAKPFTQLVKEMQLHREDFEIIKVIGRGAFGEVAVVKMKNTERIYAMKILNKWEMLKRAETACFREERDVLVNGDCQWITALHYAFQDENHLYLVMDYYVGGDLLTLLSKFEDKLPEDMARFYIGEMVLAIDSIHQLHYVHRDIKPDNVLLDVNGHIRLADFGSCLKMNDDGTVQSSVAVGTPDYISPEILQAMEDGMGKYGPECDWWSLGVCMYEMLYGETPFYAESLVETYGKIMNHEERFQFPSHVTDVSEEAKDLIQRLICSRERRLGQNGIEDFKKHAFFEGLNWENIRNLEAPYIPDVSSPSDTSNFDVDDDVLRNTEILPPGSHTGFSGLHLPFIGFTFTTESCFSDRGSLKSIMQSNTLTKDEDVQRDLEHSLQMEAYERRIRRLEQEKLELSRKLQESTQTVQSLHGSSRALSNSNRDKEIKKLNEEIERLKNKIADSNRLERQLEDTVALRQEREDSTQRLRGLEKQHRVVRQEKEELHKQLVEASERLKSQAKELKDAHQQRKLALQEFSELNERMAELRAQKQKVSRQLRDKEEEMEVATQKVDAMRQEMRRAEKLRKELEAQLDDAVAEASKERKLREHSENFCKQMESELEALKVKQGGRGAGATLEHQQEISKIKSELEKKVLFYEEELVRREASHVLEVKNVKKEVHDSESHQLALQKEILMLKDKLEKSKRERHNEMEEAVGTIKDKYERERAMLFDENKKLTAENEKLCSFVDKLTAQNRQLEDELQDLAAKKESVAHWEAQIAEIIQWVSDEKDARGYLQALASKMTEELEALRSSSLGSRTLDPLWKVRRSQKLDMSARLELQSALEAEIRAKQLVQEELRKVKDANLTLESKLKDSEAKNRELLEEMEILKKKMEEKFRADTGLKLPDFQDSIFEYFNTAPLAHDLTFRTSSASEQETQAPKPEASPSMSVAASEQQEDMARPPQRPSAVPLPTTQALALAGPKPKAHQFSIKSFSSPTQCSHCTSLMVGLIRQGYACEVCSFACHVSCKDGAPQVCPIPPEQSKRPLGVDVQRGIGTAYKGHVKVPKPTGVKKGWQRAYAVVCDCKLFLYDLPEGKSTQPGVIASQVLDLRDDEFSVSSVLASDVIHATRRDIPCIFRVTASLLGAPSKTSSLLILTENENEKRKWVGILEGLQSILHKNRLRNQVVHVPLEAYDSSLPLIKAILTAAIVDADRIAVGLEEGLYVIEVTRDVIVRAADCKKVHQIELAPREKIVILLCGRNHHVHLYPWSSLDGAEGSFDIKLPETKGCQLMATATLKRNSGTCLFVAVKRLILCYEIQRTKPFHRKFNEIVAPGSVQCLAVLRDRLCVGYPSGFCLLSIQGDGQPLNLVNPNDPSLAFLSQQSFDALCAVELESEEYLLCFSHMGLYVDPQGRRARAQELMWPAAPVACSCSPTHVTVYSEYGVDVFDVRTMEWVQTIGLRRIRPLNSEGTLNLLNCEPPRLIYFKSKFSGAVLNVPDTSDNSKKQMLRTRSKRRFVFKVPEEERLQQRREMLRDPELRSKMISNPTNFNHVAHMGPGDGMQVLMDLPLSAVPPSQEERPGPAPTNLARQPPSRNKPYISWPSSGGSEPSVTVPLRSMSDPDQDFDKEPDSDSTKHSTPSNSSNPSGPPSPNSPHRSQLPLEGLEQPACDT

CSNK1D, sequence (P48730 whole entry): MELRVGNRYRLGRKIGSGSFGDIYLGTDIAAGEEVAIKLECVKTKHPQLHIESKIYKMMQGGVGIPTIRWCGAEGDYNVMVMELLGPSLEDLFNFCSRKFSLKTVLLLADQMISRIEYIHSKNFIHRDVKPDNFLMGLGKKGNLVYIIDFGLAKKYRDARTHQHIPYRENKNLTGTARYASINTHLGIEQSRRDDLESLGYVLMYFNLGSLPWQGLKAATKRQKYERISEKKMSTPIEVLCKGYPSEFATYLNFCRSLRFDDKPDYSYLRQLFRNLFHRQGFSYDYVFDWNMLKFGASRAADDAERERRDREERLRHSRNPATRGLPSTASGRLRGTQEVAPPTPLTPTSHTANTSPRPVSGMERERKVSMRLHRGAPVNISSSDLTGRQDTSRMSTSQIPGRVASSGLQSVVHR
kinases (KINOMEscan panel) (Homo sapiens, UniProt P11309), sequence (P11309 whole entry): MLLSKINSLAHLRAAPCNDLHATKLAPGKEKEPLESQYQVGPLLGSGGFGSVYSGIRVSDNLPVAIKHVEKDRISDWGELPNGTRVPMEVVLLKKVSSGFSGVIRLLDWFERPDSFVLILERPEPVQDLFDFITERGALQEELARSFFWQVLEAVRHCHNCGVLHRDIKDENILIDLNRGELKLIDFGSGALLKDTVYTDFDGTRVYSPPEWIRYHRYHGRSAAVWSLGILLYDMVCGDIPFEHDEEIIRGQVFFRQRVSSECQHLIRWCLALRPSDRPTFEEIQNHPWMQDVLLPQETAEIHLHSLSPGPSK
kinases (KINOMEscan panel) (Homo sapiens, UniProt P15056), sequence (P15056 whole entry): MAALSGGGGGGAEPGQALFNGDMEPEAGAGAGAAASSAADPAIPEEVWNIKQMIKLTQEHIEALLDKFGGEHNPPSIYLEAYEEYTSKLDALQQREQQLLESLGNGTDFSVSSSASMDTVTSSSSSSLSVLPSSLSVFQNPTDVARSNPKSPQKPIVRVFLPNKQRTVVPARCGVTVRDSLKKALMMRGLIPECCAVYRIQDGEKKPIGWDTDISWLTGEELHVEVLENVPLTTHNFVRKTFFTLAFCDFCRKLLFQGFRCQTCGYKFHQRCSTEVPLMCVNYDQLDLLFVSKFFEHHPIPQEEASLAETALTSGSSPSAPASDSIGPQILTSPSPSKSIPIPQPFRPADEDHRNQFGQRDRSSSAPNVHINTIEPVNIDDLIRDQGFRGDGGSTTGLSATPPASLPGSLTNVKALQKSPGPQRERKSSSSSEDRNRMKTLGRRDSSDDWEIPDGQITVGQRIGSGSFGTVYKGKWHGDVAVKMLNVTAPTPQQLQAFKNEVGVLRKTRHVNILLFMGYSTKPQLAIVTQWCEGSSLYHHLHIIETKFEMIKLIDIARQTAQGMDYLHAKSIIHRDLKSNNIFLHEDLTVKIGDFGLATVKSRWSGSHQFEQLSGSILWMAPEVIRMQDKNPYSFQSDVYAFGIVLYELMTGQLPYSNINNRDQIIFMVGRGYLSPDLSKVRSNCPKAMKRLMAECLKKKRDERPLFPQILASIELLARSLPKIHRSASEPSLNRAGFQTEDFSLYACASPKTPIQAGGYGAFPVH
kinases (KINOMEscan panel) (Homo sapiens, UniProt P37023), sequence (P37023 22-503): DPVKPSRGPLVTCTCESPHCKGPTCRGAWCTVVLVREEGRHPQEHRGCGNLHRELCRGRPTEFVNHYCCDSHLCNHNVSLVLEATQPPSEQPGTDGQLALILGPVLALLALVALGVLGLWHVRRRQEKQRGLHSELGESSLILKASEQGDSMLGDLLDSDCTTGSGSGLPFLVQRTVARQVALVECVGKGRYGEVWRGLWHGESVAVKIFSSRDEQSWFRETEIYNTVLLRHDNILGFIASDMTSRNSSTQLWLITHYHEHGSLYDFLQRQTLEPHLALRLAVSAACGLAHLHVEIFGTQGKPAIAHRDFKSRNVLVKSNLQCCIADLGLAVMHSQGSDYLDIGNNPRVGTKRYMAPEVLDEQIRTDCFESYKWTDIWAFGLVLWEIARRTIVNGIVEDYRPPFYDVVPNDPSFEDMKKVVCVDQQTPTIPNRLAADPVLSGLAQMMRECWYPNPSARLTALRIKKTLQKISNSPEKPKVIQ
kinases (KINOMEscan panel) (Homo sapiens, UniProt O43683), sequence (O43683 whole entry): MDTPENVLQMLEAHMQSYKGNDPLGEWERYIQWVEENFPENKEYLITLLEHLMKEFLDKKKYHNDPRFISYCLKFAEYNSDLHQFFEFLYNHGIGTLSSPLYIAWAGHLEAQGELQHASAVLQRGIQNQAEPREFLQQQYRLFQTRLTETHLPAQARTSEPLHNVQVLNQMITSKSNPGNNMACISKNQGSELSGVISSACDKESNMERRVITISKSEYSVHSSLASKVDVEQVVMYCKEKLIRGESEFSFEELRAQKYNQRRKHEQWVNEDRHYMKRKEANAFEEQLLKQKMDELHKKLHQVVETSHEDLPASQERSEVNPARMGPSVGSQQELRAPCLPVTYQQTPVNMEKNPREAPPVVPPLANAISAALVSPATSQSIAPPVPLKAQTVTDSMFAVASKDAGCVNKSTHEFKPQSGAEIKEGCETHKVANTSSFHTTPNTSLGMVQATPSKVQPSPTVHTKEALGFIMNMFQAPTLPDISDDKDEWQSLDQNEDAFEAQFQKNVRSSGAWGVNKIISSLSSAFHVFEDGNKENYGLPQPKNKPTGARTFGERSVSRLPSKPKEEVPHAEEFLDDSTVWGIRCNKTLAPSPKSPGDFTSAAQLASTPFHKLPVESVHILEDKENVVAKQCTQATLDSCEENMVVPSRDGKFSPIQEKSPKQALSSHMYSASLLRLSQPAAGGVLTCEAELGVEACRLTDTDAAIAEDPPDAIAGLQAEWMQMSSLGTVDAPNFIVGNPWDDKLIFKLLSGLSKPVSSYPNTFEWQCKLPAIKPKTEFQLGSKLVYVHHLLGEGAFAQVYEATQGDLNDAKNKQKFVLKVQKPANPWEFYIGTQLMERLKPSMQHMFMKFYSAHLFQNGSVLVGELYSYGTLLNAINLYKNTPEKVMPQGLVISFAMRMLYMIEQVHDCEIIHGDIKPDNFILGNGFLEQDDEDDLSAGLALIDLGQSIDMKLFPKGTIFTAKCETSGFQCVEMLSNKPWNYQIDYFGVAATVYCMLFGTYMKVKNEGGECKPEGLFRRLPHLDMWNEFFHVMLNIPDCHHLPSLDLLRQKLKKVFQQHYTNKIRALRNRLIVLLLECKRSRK

SMILES	KINOMEscan CSNK2A1 [1]	KINOMEscan PIM1 [2]	KINOMEscan ULK2 [3]	KINOMEscan AURKA [4]	KINOMEscan BUB1 [5]	KINOMEscan ACVRL1 [6]	KINOMEscan BRAF [7]	KINOMEscan MAP3K11 [8]	KINOMEscan PRKD3 (PRKD3)	KINOMEscan CSNK1D (CSNK1D)	KINOMEscan CDC42BPB/MRCKB (CDC42BPB/MRCKB)
Cc1cccc(-c2nc(Nc3ccc4nn(C)cc4c3)c3ccccc3n2)n1 [NK167]	0	2	17	3	0	4	0	0	39	4	0
Cc1cccc(-c2nc(N(C)c3ccc4ncsc4c3)c3ccccc3n2)n1 [NK-161]	19	29	23	22	0	9	0	0	74	11	5
